Common to all, as to assay type: cell-based, human
The test system of one test is DU145. The test is described as follows: Thymidine incorporation, DU145. The protocol: Proliferation of cells was determined by [3H] thymidine ribotide ([3H] TdR) incorporation into DNA. 0.5×10^6 cells/well of suspension DU145 cells were plated in their appropriate media. Cells were incubated for 72 h with or without the presence of AngII at the indicated concentrations. Cells were exposed to 37 kBq/ml [methyl-3H] thymidine in the same medium for 6 h. The adherent cells were fixed by 5% trichloroacetic acid and lysed in SDS/NaOH lysis buffer overnight. Radioactivity was measured by Beckman LS3801 liquid scintillation counter (Canada). Suspension cell cultures were harvested by cell harvester (Packard instrument Co., Meriden, Conn.), and radioactivity was measured by 1450 microbeta liquid scintillation counter (PerkinElmer Life Sciences).

For another test, the system named is phospho-ERK 1/2. The test is described as follows: Western blot of phospho-ERK1/2. The conditions noted are these: DU145, Los. Here is the method:
(§1) Western blot analysis was performed as described in Example 2. Blots were then probed with primary antibody (anti-PAX2, -phospho-PAX2, -JNK, -phospho-JNK, -ERK1/2, or -phospho-ERK1/2) (Zymed, San Francisco, Calif.) at 1:1000-2000 dilutions. After washing, the membranes were incubated with anti-rabbit antibody conjugated to horseradish peroxidase (HRP) (dilution 1:5000; Sigma), and signal detection was visualized using chemilluminescence reagents (Pierce) on an Alpha Innotech Fluorchem 8900. As a control, blots were stripped and re-probed with mouse anti-β-actin primary antibody (1:5000; Sigma-Aldrich) and HRP— conjugated anti-mouse secondary antibody (1:5000; Sigma-Aldrich), and signal detection was again visualized.\

The next test has as its system phospho-JNK. Nature of the test: Western blot of phospho-JNK. The conditions noted are these: DU145. The protocol:
(§2) Western blot analysis was performed as described in Example 2. […] After washing, the membranes were incubated with anti-rabbit antibody conjugated to horseradish peroxidase (HRP) (dilution 1:5000; Sigma), and signal detection was visualized using chemilluminescence reagents (Pierce) on an Alpha Innotech Fluorchem 8900. As a control, blots were stripped and re-probed with mouse anti-β-actin primary antibody (1:5000; Sigma-Aldrich) and HRP— conjugated anti-mouse secondary antibody (1:5000; Sigma-Aldrich), and signal detection was again visualized.\

The test system of another test is PAX2 expression. Nature of the test: PAX2 expression after AngII or pathway blockers. The conditions noted are these: for PAX2 expression reduced by, compared to untreated control: Los 5 μM; for increase in PAX2 expression relative to untreated hPrEC cells: 10 μM AngII.
A further test has as its system PAX2 protein. The test is described as follows: Western blot analysis of PAX2 protein. Conditions: DU145, Los 5 μM, U0126 25 μM, PD98059 20 μM, AICAR 250 μM, vs untreated control. Here is the method:
Briefly, cells were harvested by trypsinization and washed twice with PBS. Lysis buffer was prepared according to the manufacturer's instructions (Sigma), and was then added to the cells. Following a 15 minute incubation period at 4° C. on an orbital shaker, cell lysate were then collected and centrifuged for 10 minutes at 12000×g to pellet cellular debris. The protein-containing supernatant were then collected and quantitated. Next, 25 μg protein extract was loaded onto an 8-16% gradient SDS-PAGE (Novex). Following electrophoresis, proteins were transferred to PVDF membranes, and then blocked with 5% nonfat dry milk in TTBS (0.05% Tween 20 and 100 mM Tris-Cl) for 1 hour. Blots were then probed with rabbit anti-PAX2 primary antibody (Zymed, San Francisco, Calif.) at a 1:2000 dilution. After washing, the membranes were incubated with anti-rabbit antibody conjugated to horseradish peroxidase (HRP) (dilution 1:5000; Sigma), and signal detection was visualized using chemilluminescence reagents (Pierce) on an Alpha Innotech Fluorchem 8900. As a control, blots were stripped and reprobed with mouse anti-β-actin primary antibody (1:5000; Sigma-Aldrich) and HRP— conjugated anti-mouse secondary antibody (1:5000; Sigma-Aldrich) and signal detection was again visualized.
as §1
Western blot analysis was performed as described in Example 2.

For another test, the system named is ERK. The test is described as follows: Western blot of ERK protein. The conditions noted are these: DU145; Los. The protocol: as §1
The test system of a further test is phospho-PAX2. Nature of the test: Western blot of phospho-PAX2. The conditions noted are these: DU145. The protocol:
as §2

For a further test, the system named is phospho-STAT3. Nature of the test: Western blot of phospho-STAT3. The conditions noted are these: DU145; vs untreated control. Here is the method: as §2
In a further test the test system is DEFB1. The test is described as follows: QRT-PCR of DEFB1 (hBD-1) expression. Conditions: for decrease in DEFB1 expression relative to untreated hPrEC cells: 10 μM AngII. The protocol:
Briefly, total RNA was isolated using the SV Total RNA Isolation System (Promega, Madison, Wis.) from approximately 1×10^6 cells harvested by trypsinizing. Cells were lysed and total RNA was isolated by centrifugation through spin columns. For cells collected by LCM, total RNA was isolated using the PicoPure RNA Isolation Kit (Arcturus Biosciences, Mt. View, Calif.) following the manufacturer's protocol. Total RNA (0.5 μg per reaction) from both sources was reverse transcribed into cDNA utilizing random primers (Promega). AMV Reverse Transcriptase II enzyme (500 units per reaction; Promega) was used for first strand synthesis and Tfl DNA Polymerase for second strand synthesis (500 units per reaction; Promega) as per the manufacturer's protocol. In each case, 50 pg of cDNA was used per ensuing PCR reaction. Two-step QRT-PCR was performed on cDNA generated using the MultiScribe Reverse Transcripatase from the TaqMan Reverse Transcription System and the SYBR® Green PCR Master Mix (Applied Biosystems).
Forty cycles of PCR were performed under standard conditions using an annealing temperature of 56° C. In addition, β-actin (Table 2) was amplified as a housekeeping gene to normalize the initial content of total cDNA. […]
Quantitative real-time RT-PCR was performed as described in Example 1 to verify changes in gene expression following PAX2 knockdown in PC3 and DU145 prostate cancer cell lines and the hPrEC normal prostate epithelial cells. […] Quantification was determined by the cycle number where exponential amplification began (threshold value) and averaged from the values obtained from the triplicate repeats. […] Relative expression was calculated as the ratio between each genes and GAPDH. […]
QRT-PCR was performed as previously described (Gibson et al., 2007). […] Gene expression in benign prostate tissue samples was calculated as the expression ratio compared to β-actin. Levels of hBD-1 expression in malignant prostate tissue, hPREC prostate primary culture, and prostate cancer cell lines before and after induction were calculated relative to the average level of hBD-1 expression in hPrEC cells. […]

“Also recorded” adds a separate entry of the source.

`CCCCc1nc(Cl)c(CO)n1Cc1ccc(-c2ccccc2-c2nn[nH]n2)cc1` [Los, Losartan]: the “proliferation rate decreased by” value in the test with DU145 (Los) is reported as 50%. Moreover, the “effect of AngII on proliferation” value in the test on DU145 (pre-treating with Los for 30 min) is “suppressed the effect of AngII on proliferation”. The phospho-ERK protein level entry in the test with phospho-ERK 1/2 is “reduced the amount of phospho-ERK”; in the test on phospho-ERK 1/2 (listed as Losartan) it was “suppresses phospho-ERK 1/2”. For the same compound, in the test with phospho-JNK, the phospho-JNK protein levels result is listed as “did not decrease; also recorded: failed to decrease phospho-JNK protein levels”. Also, the “PAX2 expression reduced by, compared to untreated control” value with PAX2 expression (DU145, 48 hours) worked out at 37%; in the test on PAX2 expression (DU145, 72 hours), 50%. The “effect of AngII on PAX2 expression” value in the test on PAX2 expression (DU145, Los (FIG. 21 legend)) is “blocks the effect of Angiotensin II”. Further, the figures for the PAX2 protein levels entry in the test with PAX2 protein and with PAX2 protein (listed as Losartan) were “significant reduction of PAX2 expression” and “suppress PAX2 protein levels”, respectively. The ERK protein levels result in the test with ERK was “no effect”. Besides, the phospho-PAX2 protein levels entry with phospho-PAX2 is listed as “significant decrease or suppression; also recorded: suppress phospho-PAX2 protein expression levels”. Further, the phospho-STAT3 protein levels entry with phospho-STAT3 is “reduced phospho-STAT3 protein levels; also recorded: suppress phospho-STAT3 protein levels”.

In the case of “Angiotensin II (DRVYIHPF; Angiotensin-2; UniProt P01019 25-32, looked up) [AngII]”, the proliferation rate result with DU145 (AngII, 72 h) was “two- to three-fold increase; also recorded: increases DU145 cell proliferation”. Also, in the test with PAX2 expression (DU145, AngII treatment over 30 min to 48 hour), the PAX2 expression result is on record as “progressively increased over time”. Moreover, the “increase in PAX2 expression relative to untreated hPrEC cells” value in the test on PAX2 expression (hPrEC, 72 hours) is on record as 66%; in the test on PAX2 expression (hPrEC, 96 hours), 79%. Also, in the test with PAX2 expression (hPrEC, AngII (FIG. 25 legend)), the PAX2 expression levels result is given as “increases PAX2 expression levels”. Also, in the test on PAX2 expression (hPrEC, AngII, 72 hours), the “PAX2 expression as % of PAX2 levels in PC3 cells” value is given as 77%. Besides, the “PAX2 expression as % of PAX2 expression in PC3 cells” value in the test with PAX2 expression (hPrEC, AngII, 96 hours) came out at 89%. Moreover, the “decrease in DEFB1 expression relative to untreated hPrEC cells” value in the test with DEFB1 (72 hours) is 35%; in the test on DEFB1 (96 hours) it was 50%. Further, in the test with DEFB1 (hPrEC, AngII (FIG. 25 legend)), the DEFB1 expression levels entry is recorded as “decreases DEFB1 expression levels”.

In the case of `N#CC(=C(/N)Sc1ccccc1N)/C(C#N)=C(\N)Sc1ccccc1N` [U0126], in the test with phospho-JNK, the phospho-JNK protein levels entry was “did not decrease; also recorded: failed to decrease phospho-JNK protein levels”. For the same compound, the PAX2 expression entry with PAX2 expression (DU145, U0126 25 μM, PD98059 20 μM) is given as “significant reduction of PAX2 expression”. In the test with PAX2 protein, the PAX2 protein levels entry is “suppress PAX2 protein levels”. Moreover, in the test with phospho-PAX2, the phospho-PAX2 protein levels result was “significant decrease or suppression; also recorded: suppress phospho-PAX2 protein expression levels”. The phospho-STAT3 protein levels result in the test on phospho-STAT3 is “reduced phospho-STAT3 protein levels; also recorded: suppress phospho-STAT3 protein levels”.

(Values after patent US20140336130A1 (PHIGENIX, INC., priority 2011, published 2014).)
